For orientation: IC50 means the concentration needed to halve the response being measured.

Molecules are shown by their SMILES. Some results are limits rather than exact numbers.

Our source for the IC50 values is patent publication US8202885B2, “Bridged six-membered ring compounds” (Actelion Pharmaceuticals Ltd., priority 2007, dated 2012).

The subject of this assay is human Cav3.1 Cav3.2 or Cav3.3 channel. Nature of the assay: In vitro assay T channel (FLIPR calcium fluorescence). The format is cell-based. The conditions noted are these: HEK293 cells expressing human Cav3.1, Cav3.2 or Cav3.3; 10 mM Ca2+-induced fluo-4 fluorescence; determined up to 10 μM; read-out: T channel antagonistic activity IC50. A digest of the protocol: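 IC50 (nM) is the antagonist concentration halving the area under the fluorescence peak evoked by 10 mM Ca2+, relative to vehicle, with testing up to 10 μM. Fluo-4-loaded HEK293 cells expressing each human Cav3 subtype received compound 3 min before Ca2+ addition (TEA-based buffer, pH 7.2); signal monitored 8 min at 2 s intervals.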
On to `COc1cccc2[nH]c(CCCN(C)CC[C@]3(OC(=O)C4CCC4)C[C@H]4CC[C@@H]3C=C4c3ccccc3)nc12` (relative stereo) [Example 26B, rac-Cyclobutanecarboxylic acid (1R*,2R*,4R*)-2-(2-{[3-(4-methoxy-1H-benzoimidazol-2-yl)-propyl]-methyl-amino}-ethyl)-5-phenyl-bicyclo[2.2.2]oct-5-en-2-yl ester], for which the IC50 was > 10 µM.
Consider `CC(C)C(=O)O[C@@]1(CCN(C)CCCc2nc3ccccc3[nH]2)C[C@@H]2C=C[C@H]1CC2` (relative stereo) [Example 75A, rac-Isobutyric acid (1R*,2R*,4R*)-2-(2-{[3-(1H-benzoimidazol-2-yl)-propyl]-methyl-amino}-ethyl)-bicyclo[2.2.2]oct-5-en-2-yl ester], for which the IC50 came to 1.78 µM.
Turning to `CC(C)C(=O)O[C@@]1(CCN(C)CCc2nc3ccccc3[nH]2)C[C@H]2CC[C@@H]1C=C2c1ccccc1` (relative stereo) [Example 13A, rac-Isobutyric acid (1R*,2R*,4R*)-2-(2-{[2-(1H-benzoimidazol-2-yl)-ethyl]-methyl-amino}-ethyl)-5-phenyl-bicyclo[2.2.2]oct-5-en-2-yl ester], the IC50 was 4.34 µM.
Turning to `CN(CCCc1nc2ccccc2[nH]1)CC[C@]1(O)C[C@H]2CC[C@@H]1C=C2c1ccccc1` (relative stereo) [Example 1, rac-(1R*,2R*,4R*)-2-(2-{[3-(1H-Benzoimidazol-2-yl)-propyl]-methyl-amino}-ethyl)-5-phenyl-bicyclo[2.2.2]oct-5-en-2-ol], the IC50 amounted to 2.29 µM.
Take `CC(C)C(=O)O[C@@]1(CCN(C)CCCc2nc3ccccc3[nH]2)C[C@H]2CC[C@@H]1C=C2c1cccnc1` (relative stereo) [Example 9A, rac-Isobutyric acid (1R*,2R*,4R*)-2-(2-{[3-(1H-benzoimidazol-2-yl)-propyl]-methyl-amino}-ethyl)-5-pyridin-3-yl-bicyclo[2.2.2]oct-5-en-2-yl ester]: the IC50 was determined as 2.34 µM.
On to `CC(C)C(=O)O[C@@]1(CCN(C)CCCc2cnc3ccccc3c2)C[C@H]2CC[C@@H]1C=C2c1ccccc1` (relative stereo) [Example 49A, rac-Isobutyric acid (1R*,2R*,4R*)-2-{2-[methyl-(3-quinolin-3-yl-propyl)-amino]-ethyl}-5-phenyl-bicyclo[2.2.2]oct-5-en-2-yl ester], for which the half-inhibitory concentration (IC50) amounted to 8.5 µM.
Next, `CC(C)C(=O)O[C@@]1(CCN(C)CCCc2nc3ccccc3[nH]2)C[C@H]2CC[C@@H]1C=C2c1ccccc1` (relative stereo) [Example 1A, rac-Isobutyric acid (1R*,2R*,4R*)-2-(2-{[3-(1H-Benzoimidazol-2-yl)-propyl]-methyl-amino}-ethyl)-5-phenyl-bicyclo[2.2.2]oct-5-en-2-yl ester]: 4.94 µM.
Next, `COCC(C)(COC)C(=O)N(C)CCCN(C)CC[C@]1(OC(=O)C(C)C)C[C@H]2CC[C@@H]1C(c1ccccc1)=C2C` (relative stereo) [Example 53A, rac-Isobutyric acid (1R*,2R*,4R*)-2-[2-({3-[(3-methoxy-2-methoxymethyl-2-methyl-propionyl)-methyl-amino]-propyl}-methyl-amino)-ethyl]-5-methyl-6-phenyl-bicyclo[2.2.2]oct-5-en-2-yl ester]: 0.688 µM; `COc1cccc2[nH]c(CCCN(C)CC[C@]3(O)C[C@H]4CC[C@@H]3C=C4c3ccccc3)nc12` (relative stereo) [Example 26, rac-(1R*,2R*,4R*)-2-(2-{[3-(4-Methoxy-1H-benzoimidazol-2-yl)-propyl]-methyl-amino}-ethyl)-5-phenyl-bicyclo[2.2.2]oct-5-en-2-ol]: > 10 µM; `COCC(C)(COC)C(=O)NCCCN(C)CC[C@]1(O)C[C@H]2CC[C@@H]1C=C2c1ccccc1` (relative stereo) [Example 43, rac-N-(3-{[2-((1R*,2R*,4R*)-2-Hydroxy-5-phenyl-bicyclo[2.2.2]oct-5-en-2-yl)-ethyl]-methyl-amino}-propyl)-3-methoxy-2-methoxymethyl-2-methyl-propionamide]: > 10 µM.
